From patent US20230302150A1, “ANTIBODY-TLR AGONIST CONJUGATES, METHODS AND USES THEREOF” (Ambrx, Inc., priority 2020, published 2023)

Target: T1, hTLR7 (Homo sapiens, UniProt Q9NYK1)
T1 construct: expressed in transfected cells; host or cells: HEK-Blue hTLR7 reporter cell line
T1 sequence (Q9NYK1 27-1049): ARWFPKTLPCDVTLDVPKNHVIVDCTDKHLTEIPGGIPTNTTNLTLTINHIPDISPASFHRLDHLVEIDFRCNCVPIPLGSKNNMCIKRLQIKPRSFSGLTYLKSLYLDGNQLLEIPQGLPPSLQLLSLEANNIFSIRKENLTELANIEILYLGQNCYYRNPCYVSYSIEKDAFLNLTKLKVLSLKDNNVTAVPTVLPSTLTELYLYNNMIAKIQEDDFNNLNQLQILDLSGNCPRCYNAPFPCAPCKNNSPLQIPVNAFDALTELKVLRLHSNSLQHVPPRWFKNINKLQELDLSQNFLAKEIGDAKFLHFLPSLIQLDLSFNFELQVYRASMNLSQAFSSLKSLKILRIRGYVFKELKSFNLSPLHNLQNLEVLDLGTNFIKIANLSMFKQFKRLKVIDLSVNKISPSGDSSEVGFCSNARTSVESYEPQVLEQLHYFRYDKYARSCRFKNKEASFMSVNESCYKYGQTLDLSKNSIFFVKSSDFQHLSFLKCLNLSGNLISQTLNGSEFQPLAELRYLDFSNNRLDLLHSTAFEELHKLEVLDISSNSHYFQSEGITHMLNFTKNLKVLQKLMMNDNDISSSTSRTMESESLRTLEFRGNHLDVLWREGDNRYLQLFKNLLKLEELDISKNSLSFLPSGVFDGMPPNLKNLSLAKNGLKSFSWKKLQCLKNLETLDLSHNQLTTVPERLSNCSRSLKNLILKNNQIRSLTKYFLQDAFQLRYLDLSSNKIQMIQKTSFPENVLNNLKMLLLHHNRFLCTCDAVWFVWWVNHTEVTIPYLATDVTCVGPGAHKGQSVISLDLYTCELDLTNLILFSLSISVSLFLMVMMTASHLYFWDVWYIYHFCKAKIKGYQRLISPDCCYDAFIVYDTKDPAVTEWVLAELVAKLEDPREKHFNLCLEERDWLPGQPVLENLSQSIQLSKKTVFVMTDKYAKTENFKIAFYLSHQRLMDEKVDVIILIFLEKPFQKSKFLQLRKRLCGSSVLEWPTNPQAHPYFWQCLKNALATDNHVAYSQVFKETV
Test: HEK-Blue hTLR7 reporter assay (NF-kB-induced SEAP, Quanti-Blue)
Assay type: cell-based
Settings: Table 19, TLR7, drug-linkers with PEG shielding; read-out: EC50
Procedure: HEK-Blue™ hTLR7 cells were incubated in HEK-Blue™ Detection medium and stimulated with increasing concentrations of TLR7 or TLR8 or TLR7/8 agonists. […] The EC50 was determined from dose-response curve using Prism Software.

Row | SMILES | EC50 [nM]
1 | CCCCOc1nc(N)c2[nH]c(=O)n(Cc3ccc(CN4CCC(CCNC(=O)[C@@H](N)Cn5cc(CON)nn5)CC4)cc3)c2n1 [AXC-932, (S)-2-amino-N-(2-(1-(4-((6-amino-2-butoxy-8-oxo-7,8-dihydro-9H-purin-9-yl)methyl)benzyl)piperidin-4-yl)ethyl)-3-(4-((aminooxy)methyl)-1H-1,2,3-triazol-1-yl)propanamide] | 156
2 | CCCCOc1nc(N)c2[nH]c(=O)n(Cc3ccc(CN4CCC(CCNC(=O)[C@@H](N)CO)CC4)cc3)c2n1 [AXC-933, (S)-2-amino-N-(2-(1-(4-((6-amino-2-butoxy-8-oxo-7,8-dihydro-9H-purin-9-yl)methyl)benzyl)piperidin-4-yl)ethyl)-3-hydroxypropanamide] | 40
3 | CCCCOc1nc(N)c2[nH]c(=O)n(Cc3ccc(CN4CCC(CCNC(=O)[C@@H](N)Cc5ccc(O)cc5)CC4)cc3)c2n1 [AXC-934, (S)-2-amino-N-(2-(1-(4-((6-amino-2-butoxy-8-oxo-7,8-dihydro-9H-purin-9-yl)methyl)benzyl)piperidin-4-yl)ethyl)-3-(4-hydroxyphenyl)propanamide] | 10.3
4 | CCCCOc1nc(N)c2[nH]c(=O)n(Cc3ccc(CN4CCC(CCNC(=O)[C@@H](N)CCCCn5cc(CON)nn5)CC4)cc3)c2n1 [AXC-935, (S)-2-amino-N-(2-(1-(4-((6-amino-2-butoxy-8-oxo-7,8-dihydro-9H-purin-9-yl)methyl)benzyl)piperidin-4-yl)ethyl)-6-(4-((aminooxy)methyl)-1H-1,2,3-triazol-1-yl)hexanamide] | 40
5 | CCCCOc1nc(N)c2[nH]c(=O)n(Cc3ccc(CN4CCC(CCNC(=O)[C@H](CCCCNC(=O)CON)NC(=O)CCCC(=O)NCCOCCOCCOCCOCCOCCOCCOCCOCCOCCOCCOCCOCCOCCOCCOCCOCCOCCOCCOCCOCCOCCOCCOCCOCCOCCOCCOCCOCCOCCOCCOCCOCCOCCOCCOCCOCCOCCOCCOCCOCCOCCOCCOCCOCCOCCOCCOCCOC)CC4)cc3)c2n1 [AXC-936, (S)-N1-(1-((2-(1-(4-((6-amino-2-butoxy-8-oxo-7,8-dihydro-9H-purin-9-yl)methyl)benzyl)piperidin-4-yl)ethyl)amino)-6-(2-(aminooxy)acetamido)-1-oxohexan-2-yl)-N5-(PEG48)-glutaramide] | 764
6 | CCCCOc1nc(N)c2[nH]c(=O)n(Cc3ccc(CN4CCC(CCNC(=O)[C@H](CCCCNC(=O)CON)NC(=O)CCOCCOCCOCCOCCOCCOCCOCCOC)CC4)cc3)c2n1 [AXC-937, (S)-2-PEG8-N-(2-(1-(4-((6-amino-2-butoxy-8-oxo-7,8-dihydro-9H-purin-9-yl)methyl)benzyl)piperidin-4-yl)ethyl)-6-(2-(aminooxy)acetamido)hexanamide] | 456
7 | CCCCOc1nc(N)c2[nH]c(=O)n(Cc3ccc(CN4CCC(CCNC(=O)[C@H](CCCCNC(=O)CON)NC(=O)CCCC(=O)NCCOCCOCCOCCOCCC(=O)NC(COCCC(=O)NCCOCCOCCOCCOC)(COCCC(=O)NCCOCCOCCOCCOC)COCCC(=O)NCCOCCOCCOCCOC)CC4)cc3)c2n1 [AXC-938, (S)-N1-(1-((2-(1-(4-((6-amino-2-butoxy-8-oxo-7,8-dihydro-9H-purin-9-yl)methyl)benzyl)piperidin-4-yl)ethyl)amino)-6-(2-(aminooxy)acetamido)-1-oxohexan-2-yl)-N5-mPEG4-(PEG4)3-glutaramide] | 644
8 | CCCCOc1nc(N)c2[nH]c(=O)n(Cc3ccc(CN4CCC(CCNC(=O)[C@H](CCCCNC(=O)CON)NC(=O)CCOCCOCCOCCOCCOCCOCCOCCOCCOCCOCCOCCOC)CC4)cc3)c2n1 [AXC-940, (S)—N-(2-(1-(4-((6-amino-2-butoxy-8-oxo-7,8-dihydro-9H-purin-9-yl)methyl)benzyl)piperidin-4-yl)ethyl)-6-(2-(aminooxy)acetamido)-2-PEG12-amidohexanamide] | 644
